Earlier results, collected in patent US6951654B2, “Intravaginal drug delivery devices for the administration of an antimicrobial agent” (Galen (Chemicals) Limited, priority 2001, dated 2005).

Conditions: at 20° C.; Merck Index

solubility in water: 1 g per 100 ml
Compound: Cc1ncc([N+](=O)[O-])n1CCO [metronidazole, 2-methyl-5-nitro-1H-imidazole-1-ethanol]
